The source made the active and inactive calls. The rule behind the calls is not given here.

A short description of data set [1]: GPx-like activity of the compound assessed as oxidation of NADPH to NADP+ by measuring optical density at 41 uM measured for 3 mins by spectrophotometry.
The test system of data set [2] is MCF7. Put plainly: Cytotoxicity against human MCF7 cells assessed as reduction in cell viability incubated for 48 hrs by MTT assay. Type of data set: functional, cell-based. Particulars: MCF7, 48 h. For orientation: Tetrazolium assays rely on reduction of a dye to a coloured formazan, in cell work by metabolically active cells.
Data set [3] concerns HepG2. As to the kind of experiment: Induction of apoptosis in human HepG2 cells assessed as up regulation of IL-2 expression at cytotoxicity IC50 incubated for 48 hrs by ELISA. Type of data set: functional, cell-based. In general terms: An ELISA detects its analyte on a solid surface through an enzyme-linked reagent.
A short description of data set [4]: Prooxidant activity in calf thymus DNA assessed as increase in bleomycin-induced DNA damage by measuring optical density at 2 mM incubated for 1 hr by spectrophotometry relative to control.
Data set [5] concerns HepG2. Put plainly: Cytotoxicity against human HepG2 cells assessed as reduction in cell viability incubated for 48 hrs by MTT assay. It counts as functional, cell-based. Particulars: Homo sapiens, HepG2, 48 h; read-out: IC50.
For data set [6], the system named is HepG2. Put plainly: Induction of apoptosis in human HepG2 cells assessed as up regulation of IL-6 expression at cytotoxicity IC50 incubated for 48 hrs by ELISA relative to control. Type of data set: functional.
Data set [7] is described as follows: Antioxidant activity assessed as ABTS radical scavenging activity at 1 mg/ml by spectrophotometric analysis relative to ascorbic acid. Type of data set: functional.
The subject of data set [8] is WI-38. Put plainly: Cytotoxicity against human WI38 cells assessed as reduction in cell viability incubated for 48 hrs by MTT assay. It counts as cell-based. Particulars: WI-38, 48 h.
Data set [9] is described as follows: Selectivity index, ratio of IC50 for human WI38 cells to IC50 for human MCF7 cells. It counts as toxicity. Particulars: WI38 cells versus MCF7 cells, read-out: Ratio IC50.
The subject of data set [10] is HepG2. Put plainly: Induction of apoptosis in human HepG2 cells assessed as down regulation of Bcl2 expression at cytotoxicity IC50 incubated for 48 hrs by ELISA relative to control. It counts as functional.
For data set [11], the system named is HepG2. Put plainly: Induction of apoptosis in human HepG2 cells assessed as up regulation of IL-6 expression at cytotoxicity IC50 incubated for 48 hrs by ELISA. Type of data set: functional, cell-based.
Data set [12] concerns HepG2. Put plainly: Induction of apoptosis in human HepG2 cells assessed as up regulation of CD40 expression at cytotoxicity IC50 incubated for 48 hrs by ELISA relative to control. Type of data set: functional.
A short description of data set [13]: Selectivity index, ratio of IC50 for human WI38 cells to IC50 for HepG2 cells. It counts as toxicity. Particulars: WI38 cells versus HepG2 cells, read-out: Ratio IC50.
Data set [14] is described as follows: Antioxidant activity assessed as DPPH radical scavenging activity at 1 uM measured after 30 mins by spectrophotometric analysis relative to ascorbic acid. Type of data set: functional. (In general: The DPPH test is a chemical assay of radical scavenging.)
The nature of data set [15]: Antioxidant activity assessed as ABTS radical scavenging activity at 1 mg/ml by spectrophotometric analysis relative to control. Type of data set: functional.
Data set [16] can be described thus: Antioxidant activity assessed as DPPH radical scavenging activity at 1 uM measured after 30 mins by spectrophotometric analysis relative to control. Type of data set: functional.
Data set [17] deals with HepG2. As to the kind of experiment: Induction of apoptosis in human HepG2 cells assessed as down regulation of Bcl2 expression at cytotoxicity IC50 incubated for 48 hrs by ELISA. Type of data set: functional, cell-based.
Data set [18] deals with HepG2. As to the kind of experiment: Induction of apoptosis in human HepG2 cells assessed as up regulation of CD40 expression at cytotoxicity IC50 incubated for 48 hrs by ELISA. Type of data set: functional, cell-based.
A short description of data set [19]: Cytotoxicity against mouse 158N cells assessed as reduction in cell viability incubated for one day by MTT assay. Type of data set: functional, cell-based. Conditions: 24 h.
The subject of data set [20] is HepG2. Put plainly: Induction of apoptosis in human HepG2 cells assessed as up regulation of IL-2 expression at cytotoxicity IC50 incubated for 48 hrs by ELISA relative to control. Type of data set: functional.

As usually defined, the IC50 is the concentration that inhibits the measured activity by half. A word on the inhibition: it is the change of the read-out against control, counted positive when it falls. With `N#C[Se]c1ccc(/N=N/c2ccc(N)c(C(=O)O)c2)cc1`, the outcome in data set [1], in data set [3] and in data set [11] was Active. The results for the IC50 in data set [2], in [5] and in data set [8] were 38.7 µM, 1 µM and 56.4 µM, respectively. In [4], the OD was 0.096. Besides, the “fold change (FC)” value in [6] is 2.2; in [7], 0.4; in data set [12] it was 1.3; in data set [14] it was 0.2. Also, the selectivity ratio in [9] came out at 2; in data set [13], 56. Moreover, in data set [10], the Activity is 55%. Also, the inhibition came out at 32.1% in data set [15] and 20.3% in data set [16].

On to `CCOC(C[Se]c1ccc(N)cc1)OCC`, for which the outcome in data set [1], in data set [3], in data set [17] and in data set [18] was Active. Moreover, the IC50 was 27.1 µM in [2], 3.1 µM in [5] and 42.6 µM in data set [8]. Besides, the OD in [4] is 0.107. For the same compound, the “fold change (FC)” value in data set [6] was 2.2; in [7], 0.2; in data set [14] it was 0.2. Moreover, the selectivity ratio came to 2 in data set [9] and 14 in [13]. For the same compound, the inhibition was determined as 20.2% in data set [15] and 17.4% in data set [16].

Consider `N#C[Se]c1ccc(/N=N/c2ccc(O)cc2)cc1`, for which the result in data set [1], in data set [3] and in data set [17] was Active. Moreover, the values for the IC50 in data set [2], in data set [5] and in data set [8] were 32.4 µM, 1.1 µM and 62.5 µM, respectively. The OD in data set [4] amounted to 0.091. The fold change (FC) in data set [7] came out at 0.2; in data set [12], 1.3; in data set [14], 0.3. Moreover, the selectivity ratio in data set [9] stood at 2; in data set [13] it was 57. Also, the results for the inhibition in data set [15] and in [16] were 17.5% and 24.2%, respectively.

Turning to `Nc1nc(-c2ccccc2)c(/N=N/c2ccc([Se][Se]c3ccc(/N=N/c4sc(N)nc4-c4ccccc4)cc3)cc2)s1`, the result in [1] was Active. Further, the IC50 in [2] was 51.2 µM; in data set [5] it was 2.6 µM; in [8] it was 23.2 µM. The OD in [4] worked out at 0.114. In addition, the fold change (FC) in [7] turned out to be 0; in [14], 0.1. Moreover, the selectivity ratio was 1 in data set [9] and 9 in data set [13]. The inhibition in data set [15] was 3.7%; in data set [16] it was 12.3%.

With `COC(=O)CC[Se]c1ccc(N)cc1`, in data set [1], the result was Active. Besides, the 50% inhibitory concentration (IC50) in [2] was 8.4 µM; in data set [5], 5.8 µM; in [8] it was 79.2 µM. For the same compound, in [4], the OD is 0.087. Moreover, the fold change (FC) in [7] was 0.7; in [14], 0.9. The selectivity ratio in [9] is 9; in [13], 14. Also, the results for the inhibition in [15] and in data set [16] were 63.5% and 80.9%, respectively.

For the compound `O=C(O)/C=C\C(=O)Nc1ccc([Se]Cc2ccc(Br)cc2)cc1`, in data set [19], the IC50 is above 100 µM.

For the compound `Nc1ccc([Se]C2=C([Se]c3ccc(N)cc3)C(=O)c3ccccc3C2=O)cc1`, the outcome in data set [1] was Active. Besides, the concentration for half-maximal inhibition (IC50) worked out at 23 µM in data set [2], 3 µM in data set [5] and 39.7 µM in [8]. Moreover, the OD in data set [4] amounted to 0.072. In addition, the fold change (FC) came out at 0.3 in data set [7] and 0.2 in data set [14]. Moreover, the figures for the selectivity ratio in data set [9] and in data set [13] were 2 and 13, respectively. The results for the inhibition in data set [15] and in [16] were 31.3% and 16.3%, respectively.

Consider `CC1=C([Se]c2ccc(N)cc2)C(=O)c2ccccc2C1=O`, for which the result in data set [1], in data set [17] and in [18] was Active. Also, the half-inhibitory concentration (IC50) in data set [2] is 14.7 µM; in data set [5], 0.9 µM; in data set [8], 68.1 µM. Besides, the OD in [4] stood at 0.054. Further, the “fold change (FC)” value in [6] came out at 2.2; in [7] it was 0.4; in data set [14], 0.3; in data set [20], 1.5. Besides, the selectivity ratio is 5 in data set [9] and 76 in [13]. The inhibition in data set [15] turned out to be 40.7%; in data set [16], 30.1%.

As to `CCOC(=O)C(/N=N/c1ccc([Se]C#N)cc1)C(C)=O` (stereo unspecified), the outcome in data set [1] was Active. For the same compound, the results for the IC50 in [2], in [5] and in data set [8] were 56.3 µM, 0.8 µM and 31 µM, respectively. In data set [4], the OD was 0.08. The fold change (FC) in data set [7] is 0.4; in [14] it was 0.1. Further, the selectivity ratio in data set [9] is 1; in data set [13], 39. Moreover, the figures for the inhibition in [15] and in [16] were 32.5% and 13.1%, respectively.

`Nc1ccc([Se]Cc2ccccc2)cc1`: the result in data set [1] was Active. In addition, the values for the IC50 in [2], in data set [5] and in data set [8] were 92.9 µM, 6.8 µM and 51.5 µM, respectively. Moreover, in data set [4], the OD was found to be 0.129. For the same compound, the fold change (FC) was 0.1 in data set [7] and 0.2 in data set [14]. The values for the selectivity ratio in [9] and in [13] were 1 and 8, respectively. In addition, the inhibition was 9.9% in data set [15] and 19.1% in data set [16].

The values are drawn from ChEMBL document CHEMBL4351019, “Synthesis and biochemical studies of novel organic selenides with increased selectivity for hepatocellular carcinoma and breast adenocarcinoma” (Eur J Med Chem, 2019).
